Data reported in publication PMC4809247 (Journal of medicinal chemistry, 2015).

Legend:
marble burying [1] = settings: cited from earlier work
immobility time [2] = settings: cited from earlier work
rat mGlu2 [3] = biological target: T1, rat mGlu2 (Rattus norvegicus, UniProt P31421); settings: cited from earlier work
rat mGlu5 [4] = biological target: T2, rat mGlu5 (Rattus norvegicus, UniProt P31424); settings: cited from earlier work
rat mGlu2 [5] = biological target: T1, rat mGlu2; test: mGlu2 calcium mobilization assay; type: cell-based; settings: full CRC
rat mGlu5 [6] = biological target: T2, rat mGlu5; test: Calcium mobilization mGlu5 assay; type: cell-based; settings: for mGlu5 pEC50 (± SEM): calcium mobilization, average of n ≥ 3 (n = 2 where marked)
rat mGlu3 [7] = biological target: T3, rat mGlu3 (Rattus norvegicus, UniProt P31422); settings: calcium mobilization; average of n ≥ 3
T3 sequence (P31422 23-879): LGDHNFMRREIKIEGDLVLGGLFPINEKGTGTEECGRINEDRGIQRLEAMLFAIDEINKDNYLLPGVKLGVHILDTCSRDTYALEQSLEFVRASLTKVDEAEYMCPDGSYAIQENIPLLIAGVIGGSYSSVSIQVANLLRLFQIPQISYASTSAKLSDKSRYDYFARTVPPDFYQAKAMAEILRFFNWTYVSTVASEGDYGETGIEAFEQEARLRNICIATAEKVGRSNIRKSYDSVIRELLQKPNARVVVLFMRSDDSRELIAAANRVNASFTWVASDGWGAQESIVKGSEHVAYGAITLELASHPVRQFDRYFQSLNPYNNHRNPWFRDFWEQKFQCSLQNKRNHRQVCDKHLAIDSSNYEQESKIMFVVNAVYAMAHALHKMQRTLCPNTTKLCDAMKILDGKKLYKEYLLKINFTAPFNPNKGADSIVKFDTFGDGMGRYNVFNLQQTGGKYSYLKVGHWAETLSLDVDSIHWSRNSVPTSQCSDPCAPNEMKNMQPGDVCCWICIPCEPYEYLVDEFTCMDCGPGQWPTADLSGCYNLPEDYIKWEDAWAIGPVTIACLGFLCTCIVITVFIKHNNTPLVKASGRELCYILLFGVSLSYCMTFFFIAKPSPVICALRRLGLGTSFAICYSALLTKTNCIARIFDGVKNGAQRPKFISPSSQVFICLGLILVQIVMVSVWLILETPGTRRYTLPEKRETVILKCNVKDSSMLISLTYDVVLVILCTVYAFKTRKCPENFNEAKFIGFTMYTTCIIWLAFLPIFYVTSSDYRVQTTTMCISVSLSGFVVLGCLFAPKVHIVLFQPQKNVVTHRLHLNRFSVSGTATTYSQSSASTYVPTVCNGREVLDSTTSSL

[8] = Rat cassette PK study, IV dosing; settings: in vivo, 0.2 mg/kg
[9] = Intrinsic clearance in rat liver microsomes; type: in vitro ADME; settings: predicted hepatic clearance based on intrinsic clearance in rat liver microsomes
rat mGlu3 [10] = biological target: T3, rat mGlu3; test: cell-based
5-HT2B = 5-HT2B (Homo sapiens, UniProt P41595); test: 5-HT2B functional cell-based assay; settings: agonist or antagonist
Sequence of 5-HT2B (P41595 whole entry, species assumed): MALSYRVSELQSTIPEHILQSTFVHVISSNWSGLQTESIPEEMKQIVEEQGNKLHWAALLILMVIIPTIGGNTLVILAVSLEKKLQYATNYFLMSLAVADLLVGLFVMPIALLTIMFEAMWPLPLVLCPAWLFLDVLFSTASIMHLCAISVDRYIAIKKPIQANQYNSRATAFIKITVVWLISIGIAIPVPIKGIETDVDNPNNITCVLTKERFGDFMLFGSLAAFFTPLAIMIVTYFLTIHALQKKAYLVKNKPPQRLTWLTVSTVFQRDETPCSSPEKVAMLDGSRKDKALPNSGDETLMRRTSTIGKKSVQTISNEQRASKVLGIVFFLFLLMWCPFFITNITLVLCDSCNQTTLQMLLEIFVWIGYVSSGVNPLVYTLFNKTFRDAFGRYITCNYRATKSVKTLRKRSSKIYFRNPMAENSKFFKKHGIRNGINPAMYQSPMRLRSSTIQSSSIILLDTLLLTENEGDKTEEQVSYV

[11] = Mouse IP single time point tissue distribution; settings: in vivo, 10 mg/kg, plasma concentration, 30 min post dose, n = 3
Mouse IP PK time course = type: in vivo; settings: 10 mg/kg dose in marble burying study, estimated from DMPK data
immobility time [12] = test: Forced swim test; type: in vivo, rat; settings: 56.6 mg/kg (highest dose); male Sprague–Dawley rats; 30 min pretreatment; 6 min session; p < 0.05 vs vehicle
other mGlus = type: cell-based; settings: 10 μM compound, fold-shift experiments
[13] = tested on: panel of 68 clinically relevant GPCRs, ion channels, kinases, and transporters; type: binding; settings: 10 μM; 68 targets
marble burying [14] = test: Marble burying assay in mice; settings: 56.6 mg/kg; male CD-1 mice; 15 min pretreatment
mGlu3 = mGlu3 (Rattus norvegicus, UniProt P31422); settings: multiple concentrations of compound
Sequence of mGlu3 (P31422 23-879): as the sequence (P31422 23-879) above

T1 sequence (P31421 19-872): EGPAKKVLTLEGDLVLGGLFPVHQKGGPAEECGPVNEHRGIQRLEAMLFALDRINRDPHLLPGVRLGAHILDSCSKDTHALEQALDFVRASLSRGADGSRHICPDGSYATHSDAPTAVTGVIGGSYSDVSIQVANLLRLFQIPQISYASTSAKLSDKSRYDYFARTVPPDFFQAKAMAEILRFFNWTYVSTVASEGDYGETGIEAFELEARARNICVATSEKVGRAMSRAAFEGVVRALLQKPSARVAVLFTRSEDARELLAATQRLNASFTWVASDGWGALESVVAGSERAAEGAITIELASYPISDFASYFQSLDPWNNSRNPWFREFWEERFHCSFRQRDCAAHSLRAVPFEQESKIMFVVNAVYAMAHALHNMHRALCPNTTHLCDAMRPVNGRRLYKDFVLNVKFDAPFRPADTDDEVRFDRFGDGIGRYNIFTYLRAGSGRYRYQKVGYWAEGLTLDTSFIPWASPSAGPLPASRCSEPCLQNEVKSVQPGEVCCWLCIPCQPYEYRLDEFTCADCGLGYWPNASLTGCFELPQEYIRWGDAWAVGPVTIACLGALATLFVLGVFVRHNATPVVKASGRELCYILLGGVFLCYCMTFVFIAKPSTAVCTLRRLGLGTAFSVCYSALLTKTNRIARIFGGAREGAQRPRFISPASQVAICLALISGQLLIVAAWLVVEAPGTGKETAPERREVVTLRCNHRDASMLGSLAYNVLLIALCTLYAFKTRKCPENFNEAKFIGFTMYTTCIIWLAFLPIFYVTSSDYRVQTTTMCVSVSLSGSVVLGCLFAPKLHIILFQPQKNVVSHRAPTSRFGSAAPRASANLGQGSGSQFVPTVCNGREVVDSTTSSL
T2 sequence (P31424 21-1203): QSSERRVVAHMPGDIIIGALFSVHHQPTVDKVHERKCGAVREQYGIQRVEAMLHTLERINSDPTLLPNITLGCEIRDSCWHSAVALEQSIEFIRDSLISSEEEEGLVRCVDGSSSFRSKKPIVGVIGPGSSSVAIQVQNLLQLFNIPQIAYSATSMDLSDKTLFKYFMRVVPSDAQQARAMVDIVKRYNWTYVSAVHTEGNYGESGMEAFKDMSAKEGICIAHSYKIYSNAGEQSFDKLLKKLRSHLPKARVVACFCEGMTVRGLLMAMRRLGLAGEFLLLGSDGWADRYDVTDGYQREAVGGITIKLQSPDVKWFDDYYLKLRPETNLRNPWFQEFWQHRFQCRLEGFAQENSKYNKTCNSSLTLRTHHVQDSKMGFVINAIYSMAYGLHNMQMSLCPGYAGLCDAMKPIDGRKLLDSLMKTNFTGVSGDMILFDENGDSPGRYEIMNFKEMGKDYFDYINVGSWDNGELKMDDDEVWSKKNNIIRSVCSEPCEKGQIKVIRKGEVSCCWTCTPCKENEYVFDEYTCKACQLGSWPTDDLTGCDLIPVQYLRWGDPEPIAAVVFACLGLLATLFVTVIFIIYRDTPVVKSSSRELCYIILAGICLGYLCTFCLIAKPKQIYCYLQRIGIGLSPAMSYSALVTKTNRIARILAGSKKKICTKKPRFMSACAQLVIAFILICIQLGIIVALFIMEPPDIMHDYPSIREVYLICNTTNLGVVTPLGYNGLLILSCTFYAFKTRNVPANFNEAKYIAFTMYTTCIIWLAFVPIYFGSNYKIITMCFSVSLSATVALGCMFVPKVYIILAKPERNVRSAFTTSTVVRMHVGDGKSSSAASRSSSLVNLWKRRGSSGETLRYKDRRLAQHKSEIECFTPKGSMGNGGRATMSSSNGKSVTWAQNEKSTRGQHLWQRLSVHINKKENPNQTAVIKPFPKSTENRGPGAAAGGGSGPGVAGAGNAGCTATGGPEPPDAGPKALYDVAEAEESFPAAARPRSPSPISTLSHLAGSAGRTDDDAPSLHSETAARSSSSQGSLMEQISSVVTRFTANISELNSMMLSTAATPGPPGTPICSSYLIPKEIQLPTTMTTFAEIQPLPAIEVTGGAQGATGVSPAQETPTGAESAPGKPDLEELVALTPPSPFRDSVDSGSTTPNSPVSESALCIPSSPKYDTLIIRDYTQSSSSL

Compound	mGlu5 pEC50 (± SEM) (rat mGlu5 [6])	mGlu3 pIC50 (± SEM) (rat mGlu3 [7])	rat CLhep [9] [mL/min/kg]	other results
N[C@](CC1c2ccccc2Oc2ccccc21)(C(=O)O)[C@H]1C[C@@H]1C(=O)O [Compound 1]				inhibition of marble burying (marble burying [1]): previously shown to inhibit marble burying; efficacy in FST (immobility time [2]): efficacy
N[C@]1(C(=O)O)[C@H]2[C@@H](C[C@H]1OCc1ccc(Cl)c(Cl)c1)[C@]2(F)C(=O)O [Compound 2]				inhibition of marble burying (marble burying [1]): previously shown to inhibit marble burying; efficacy in FST (immobility time [2]): efficacy
COc1ccc(C#Cc2ccc(C(=O)N3CCC[C@@H](CO)C3)cc2)cc1 [Compound 7]				selectivity versus mGlu2 (rat mGlu2 [3]): > 15 fold
COc1ccc(C#Cc2ccc(C(=O)N3CCC[C@@H](O)C3)c(F)c2)cc1 [Compound 8]				mGlu5 activity (rat mGlu5 [4]): devoid of both mGlu2 and mGlu5 activity; mGlu2 activity (rat mGlu2 [3]): devoid of both mGlu2 and mGlu5 activity
C[C@@H]1CN(c2ccc(F)cc2)C(=O)c2cc(COc3ccccn3)nn21 [Compound 10]				mGlu2: inactive up to the top concentration tested (rat mGlu2 [5]): > 30 µM
C[C@@H]1CN(c2ccc(F)cc2)C(=O)c2cc(COc3ccccc3)nn21 [Compound 18]	7.34 ± 0.02	6.57 ± 0.15		fold preference for mGlu5 vs mGlu3 activity (rat mGlu5 [6]): ~6 fold
C[C@@H]1CN(c2ccc(F)cc2)C(=O)c2cc(COc3ccccc3F)nn21 [Compound 22]	6.71 ± 0.04	6.28 ± 0.20		
C[C@@H]1CN(c2ccc(F)cc2)C(=O)c2cc(COc3cccc(F)c3)nn21 [Compound 23]	7.14 ± 0.02	6.11 ± 0.03		
C[C@@H]1CN(c2ccc(F)cc2)C(=O)c2cc(COc3ccc(F)cc3)nn21 [Compound 24]	7.03 ± 0.05	6.34 ± 0.04		half-life [8]: > 1.5 h
C[C@@H]1CN(c2ccc(F)cc2)C(=O)c2cc(COc3ccc(F)cc3F)nn21 [Compound 25]	6.51 ± 0.05	6.38 ± 0.22		
Cc1ccccc1OCc1cc2n(n1)[C@H](C)CN(c1ccc(F)cc1)C2=O [Compound 26]	5.83 ± 0.04			
Cc1ccc(OCc2cc3n(n2)[C@H](C)CN(c2ccc(F)cc2)C3=O)cc1 [Compound 28]	5.97 ± 0.04	5.92 ± 0.02		
COc1cccc(OCc2cc3n(n2)[C@H](C)CN(c2ccc(F)cc2)C3=O)c1 [Compound 33]	5.74 ± 0.04			
COc1ccc(OCc2cc3n(n2)[C@H](C)CN(c2ccc(F)cc2)C3=O)cc1 [Compound 34]	5.87 ± 0.16	5.98 ± 0.02		
C[C@@H]1CN(c2ccc(F)cc2)C(=O)c2cc(COc3ccc(C(F)(F)F)cc3)nn21 [Compound 35]	<4.5	5.73 ± 0.01		
CCc1ccc(OCc2cc3n(n2)[C@H](C)CN(c2ccc(F)cc2)C3=O)cc1 [Compound 36]	5.49 ± 0.03			
C[C@@H]1CN(c2ccc(F)cc2)C(=O)c2cc(COc3ccc(C#N)cc3)nn21 [Compound 37]	5.71 ± 0.06	6.11 ± 0.12		
CCOc1ccc(OCc2cc3n(n2)[C@H](C)CN(c2ccc(F)cc2)C3=O)cc1 [Compound 38]	<4.5	5.94 ± 0.06		mGlu5: no activity up to the highest concentration tested (rat mGlu5 [6]): > 30 µM
C[C@@H]1CN(c2ccc(F)cc2)C(=O)c2cc(COc3ccc(OC(F)(F)F)cc3)nn21 [Compound 39]	<4.5	5.39 ± 0.04		mGlu5: no activity up to the highest concentration tested (rat mGlu5 [6]): > 30 µM
C[C@@H]1CN(c2ccc(F)cc2)C(=O)c2cc(COc3ncccc3C(F)(F)F)nn21 [Compound 42]	<4.5			mGlu5: no activity up to the highest concentration tested (rat mGlu5 [6]): > 30 µM
COc1cccnc1OCc1cc2n(n1)[C@H](C)CN(c1ccc(F)cc1)C2=O [Compound 43]	<4.5			mGlu5: no activity up to the highest concentration tested (rat mGlu5 [6]): > 30 µM
C[C@@H]1CN(c2ccc(F)cc2)C(=O)c2cc(COc3ccc(Cl)cn3)nn21 [Compound 48]				half-life [8]: ~2 h

Compound	mGlu5 pEC50 (± SEM) (rat mGlu5 [6])	mGlu3 pIC50 (± SEM) (rat mGlu3 [7])	rat CLhep [9] [mL/min/kg]	other results
C[C@@H]1CN(c2ccc(F)cc2)C(=O)c2cc(COc3cccc(C(F)(F)F)n3)nn21 [Compound 50]	<4.5	5.63 ± 0.02		mGlu5: no activity up to the highest concentration tested (rat mGlu5 [6]): > 30 µM
C[C@@H]1CN(c2ccccc2F)C(=O)c2cc(COc3ccc(F)cn3)nn21 [Compound 55]			64.7	
C[C@@H]1CN(c2cccc(F)c2)C(=O)c2cc(COc3ccc(F)cn3)nn21 [Compound 56]		6.72 ± 0.08	53.0	
C[C@@H]1CN(c2ccccc2Cl)C(=O)c2cc(COc3ccc(F)cn3)nn21 [Compound 57]		6.85 ± 0.16	66.5	
C[C@@H]1CN(c2cccc(Cl)c2)C(=O)c2cc(COc3ccc(F)cn3)nn21 [Compound 58]			51.9	
Cc1cccc(N2C[C@@H](C)n3nc(COc4ccc(F)cn4)cc3C2=O)c1 [Compound 61]		6.67 ± 0.15	58.4	
C[C@@H]1CN(c2cccc(F)c2F)C(=O)c2cc(COc3ccc(F)cn3)nn21 [Compound 66]		6.73 ± 0.16	63.6	
C[C@@H]1CN(c2cc(F)ccc2F)C(=O)c2cc(COc3ccc(F)cn3)nn21 [Compound 67]			49.6	
C[C@@H]1CN(c2c(F)cccc2F)C(=O)c2cc(COc3ccc(F)cn3)nn21 [Compound 68]			64.6	
C[C@@H]1CN(c2ccncc2)C(=O)c2cc(COc3ccc(F)cn3)nn21 [Compound 71]	<4.5	6.05 ± 0.04		
C[C@@H]1CN(c2cc(F)ccc2C#N)C(=O)c2cc(COc3ccc(Cl)cn3)nn21 [Compound 98]	<4.5	6.28 ± 0.06		mGlu5: no activity up to the highest concentration tested (rat mGlu5 [6]): > 30 µM
C[C@@H]1CN(c2cc(F)cc(C#N)c2)C(=O)c2cc(COc3ccc(Cl)cn3)nn21 [Compound 99]			47.7	IC50 (rat mGlu3 [10]): 529 nM; half-life [8]: > 3 h
C[C@@H]1CN(c2ccccn2)C(=O)c2cc(COc3ccc(Cl)cn3)nn21 [Compound 100]	<4.5	6.48 ± 0.07	69.5	
C[C@@H]1CN(c2cccnc2)C(=O)c2cc(COc3ccc(Cl)cn3)nn21 [Compound 101]	<4.5	6.22 ± 0.10	42.0	
C[C@@H]1CN(c2ncccc2C#N)C(=O)c2cc(COc3ccc(Cl)cn3)nn21 [Compound 103]	<4.5			
C[C@@H]1CN(c2cccc(F)n2)C(=O)c2cc(COc3ccc(Cl)cn3)nn21 [Compound 105]		6.53 ± 0.08		
C[C@@H]1CN(c2cccnc2F)C(=O)c2cc(COc3ccc(Cl)cn3)nn21 [Compound 106, (R)-2-(((5-Chloropyridin-2-yl)oxy)methyl)-5-(2-fluoropyridin-3-yl)-7-methyl-6,7-dihydropyrazolo[1,5-a]pyrazin-4(5H)-one]	<4.5	6.41 ± 0.05		mGlu2: inactive up to the top concentration tested (rat mGlu2 [5]): > 30 µM; 5-HT2B functional activity: no activity up to (5-HT2B): > 10 µM; concentration at 30 min [11]: 2590 ± 290 nM; estimated peak CNS unbound exposure (Mouse IP PK time course): 564 nM; decrease in immobility time in FST (immobility time [12]): significant effects in decreasing immobility time; effect on the orthosteric agonist CRC, other mGlus (other mGlus): No significant effect; significant responses (>50% inhibition of radioligand binding) in panel [13]: only a single significant response; inhibition of marble burying at highest dose (marble burying [14]): essentially complete inhibition
C[C@@H]1CN(c2cnccc2F)C(=O)c2cc(COc3ccc(Cl)cn3)nn21 [Compound 107]	<4.5	6.32 ± 0.03	36.0	
C[C@@H]1CN(c2cncc(F)c2)C(=O)c2cc(COc3ccc(Cl)cn3)nn21 [Compound 108]	<4.5		26.6	
C[C@@H]1CN(c2cncc(C#N)c2)C(=O)c2cc(COc3ccc(Cl)cn3)nn21 [Compound 109]	<4.5	6.22 ± 0.01	22.8	
N#Cc1cc(C2=Nc3ccc(Br)cc3NC(=O)C2)ccn1 [Compound 111]				effect on the glutamate CRC (progressive fold-shift) (mGlu3): characteristic rightward shift and depressed glutamate maximum
